US5112519A, “Process for production of biodegradable surfactants and compositions thereof” (Mobil Oil Corporation, priority 1989, dated 1992)

Key:
[1] = Soil removal, phosphorous built industrial liquid laundry detergent, carbon black/oil; conditions: 130° F.
Excerpt: (§1) In contrast, the three industrial detergents contained a high performance builder package, and dodecylbenzenesulfonic acid sodium salt. Two of the three also contain an AE, either tridecanol-9-mole-ethoxylate or C12-15 -alcohol-9 mole-ethoxylate. Many commercial detergents use combinations of LABS and AE's to balance performance and cost. LABS remove particulates well and lower overall surfactant cost while AE's effectively remove oily soils. The surfactant concentrations in all three are equal (i.e., the detergent without AE had more LABS) excepting the detergent using Mobil's AE. Its concentration is not increased to offset a contaminant, 7 wt % polyethylene glycol. The builder in all three detergents contained tetrapotassium pyrophosphate, sodium metasilicate, potassium hydroxide, and carboxymethylcellulose.
(§2) Testing Methods. This study uses two artificial soils on three test fabrics. Carbon black in an oil matrix simulates particulate soil, and sebum/dust simulates oily soil. Test Fabrics Inc. (Middlesex, N.J.) prints these soils on 100% cotton, 65/35 polyester/cotton with permanent press finish, and 100% polyester fabrics.
(§3) U.S. Testing Company did the fabric washing and drying under carefully controlled conditions. A Terg-O-Tometer washes using a 15 minute wash time. Conditions are 100 rpm agitation speed, 130° F. for the industrial detergents and 100° F. for the household detergents. They made wash and rinse water to 150 ppm hardness (U.S. national average), and washes six 3×4 inch test swatches per liter of solution. They rinse each load twice for five minutes. After washing and rinsing, the swatches are dried in an electric dryer, and ironed with a warm iron to remove wrinkles. All samples are run in triplicate.
(§4) White light reflectance, taken before and after washing, measures soil removal. A green filter cut out the effect of artificial brighteners. They measure soil redoposition by taking reflectance readings of fabric margins (areas not printed with soil) before and after washing. […]

[2] = Soil removal, phosphorous built industrial liquid laundry detergent, sebum/dust; conditions: 130° F.
Excerpt: as §1, §2, §3, §4

[3] = Soil removal, unbuilt household liquid laundry detergent, carbon black/oil; conditions: 100° F.
Excerpt: (§5) Applicants blend three unbuilt household detergents differing only in the surfactant. Either Mobil's tridecanol-9 mole-ethoxylate, Shell's C12-15 -alcohol-9 mole-ethoxylate, or Vista's dodecylbenzenesulfonic acid sodium salt are used. All contain triethanolamine to make the wash liquor basic. This type formulation magnifies surfactant differences because it lacks a builder to extend the surfactant and soften hard water.
as §2, §3
(§6) White light reflectance, taken before and after washing, measures soil removal. A green filter cut out the effect of artificial brighteners. They measure soil redoposition by taking reflectance readings of fabric margins (areas not printed with soil) before and after washing. […] However, the reflectance technique more closely measures soil removal from the fabric surface, what the consumer sees.

[4] = Soil removal, unbuilt household liquid laundry detergent, sebum/dust; conditions: 100° F.
Excerpt: as §5, §2, §3, §6

## dodecylbenzenesulfonic acid sodium salt [Vista LABS]
[1]; Cotton
  Percent Soil Removal: 52%
[1]; Polyester
  Percent Soil Removal: 29%
[1]; Polyester/Cotton
  Percent Soil Removal: 34%
[2]; Cotton
  Percent Soil Removal: 60%
[2]; Polyester
  Percent Soil Removal: 39%
[2]; Polyester/Cotton
  Percent Soil Removal: 82%
[3]; Cotton
  Percent Soil Removal: 36%
[3]; Polyester
  Percent Soil Removal: 40%
[3]; Polyester/Cotton
  Percent Soil Removal: 31%
[4]; Cotton
  Percent Soil Removal: 36%
[4]; Polyester
  Percent Soil Removal: 19%
[4]; Polyester/Cotton
  Percent Soil Removal: 45%
